The values that follow come from PMC4862670, “Biochemical Effect of Resistance Mutations against Synergistic Inhibitors of RSV RNA Polymerase” (PLoS ONE, 2016).

The test system of data set [1] is Nc1ccn([C@@H]2O[C@](CCl)(COP(=O)(O)OP(=O)(O)OP(=O)(O)O)[C@@H](O)[C@H]2O)c(=O)n1. Briefly: purified protein, by the assay type. The following applies: pH 7.5.
Data set [2] has as its system [N-]=[N+]=N[C@]1(COP(=O)(O)OP(=O)(O)OP(=O)(O)O)O[C@@H](n2ccc(N)nc2=O)[C@H](F)[C@@H]1O. Briefly: purified protein, by the assay type. The following applies: pH 7.5.
Data set [3] deals with T1, WT RSV L-P (Human respiratory syncytial virus A, UniProt P28887).
T1 construct: made in house; host or cells: insect cells
It counts as biochemical. The method, then:
The recombinant RSV polymerase complex was produced by co-expressing the L and P proteins of RSV in insect cells as previously described. Unless otherwise specified, RNA polymerase reaction samples consisted of 0.2 μM of an oligonucleotide template sequence derived from the RSV leader promoter (5'-[…]-3') and 0.2 μM recombinant RSVL-P polymerase together with 200 μM 5'-pACGC primer, mixed in a buffer containing 20 mM Tris pH 7.5, 10 mM KCl, 2 mM dithiothreitol, 0.5% triton X-100, 10% DMSO, 0.2 U/μL RNasin (Ambion), and 6 mM MgCl2. Reactions were started by adding specific NTPs to a final volume of 10 μL and incubated at 30°C. The radioisotope tracer used for this assay was α^33P-GTP. To measure the incorporation of GTP analogs, the oligonucleotide template sequence was modified to 5'-[…]-3'. Reactions were stopped after 30 minutes by adding an equal volume of gel loading buffer (Ambion). Samples were denatured at 95°C for 5 minutes, and run for 1.5 hours at 80 W in a 22.5% polyacrylamide urea sequencing gel. After the gel was dried, the product of migration was exposed to a phosphor-screen and scanned on a Typhoon phosphorimager (GE Healthcare) and quantified using ImageQuant (GE Healthcare). For each enzyme, the level of NTP analog discrimination was calculated as Km NTP analog / Km NTP, and the corresponding resistance as Mutantdiscrimination / WTdiscrimination.

The target of data set [4] is T2, QUAD RSV L-P (M628L, A789V, L795I, I796V) (Human respiratory syncytial virus A, UniProt P28887, A789V/I796V/L795I/M628L). Briefly: Single nucleotide incorporation (primer extension) by recombinant RSV L-P, QUAD mutant. It counts as biochemical. As to conditions: for Discrimination (Km NTP analog / Km NTP) / Km: QUAD RSV L-P; for Km: single nucleotide incorporation; for Resistance (QUADdiscrimination / WTdiscrimination): QUAD vs WT RSV L-P.

Data set [5] has as its system WT RSV L polymerase-dependent luciferase activity. Description: cells. It counts as cell-based, Respiratory syncytial virus (RSV). The following applies: human respiratory syncytial virus, HEp-2 cells, minigenome luciferase.
Data set [6] deals with QUAD RSV L polymerase-dependent luciferase activity. Briefly: cells. It counts as cell-based, Respiratory syncytial virus (RSV), HEp-2 cells.
The target in data set [7] is Y1631H RSV polymerase (Human respiratory syncytial virus A, UniProt P28887, Y1631H). Description: Single nucleotide incorporation, Y1631H mutant. The class given is biochemical.
The target in data set [8] is T1, WT RSV L-P. As to conditions: cited from earlier work.
Data set [9] concerns the target T2, QUAD RSV L-P (M628L, A789V, L795I, I796V). As to conditions: cited from earlier work.
Data set [10] addresses RSV polymerase containing the Y1631H mutation in the L subunit (Human respiratory syncytial virus A, UniProt P28887, Y1631H). Description: Biotin-primer extension RdRp assay, Y1631H. As to conditions: Y1631H IC50 vs WT IC50. It counts as biochemical.
Data set [11] has as its target T1, WT RSV L-P. It counts as biochemical. As to conditions: 10 μM.
The target of data set [12] is T3, RSV L-P dimer (Human respiratory syncytial virus A, UniProt P28887).
T3 construct: made in house; host or cells: insect cells
Briefly: Ni-NTA pull-down assay of RSV L-P. The class given is binding. As to conditions: 10 μM, 30 minutes pre-incubation. The method, then: The enzyme-inhibitor complex was pre-incubated for 30 minutes, after which nickel beads were used to pull down the histidine-tagged P subunit. The bound protein was washed on the beads and visualized by SDS PAGE. When the experiment was performed in the presence of DMSO, the untagged L subunit remained noncovalently bound to P (Fig 6A, lane 1).
Beads were collected by centrifugation, and washed in 500 μL buffer containing 20mM Tris pH 7.5, 10 mM KCl, 6 mM MgCl2, 0.01% Triton X-100, and 2 mM DTT. Beads were resuspended in 20 μL loading buffer (4% SDS, 20% glycerol, 0.12M Tris pH 7, and 10% BME) and heated for 5 minutes at 95°C. Samples were run on a 4% to 12% SDS PAGE gel alongside PageRuler prestained marker (Invitrogen) and stained using SimplyBlue SafeStain (Thermo Fisher Scientific).

Setting [13] is: WT RSV L-P, single nucleotide incorporation.

Where “and” joins values, the source holds several entries; their conditions need not be identical. Equal entries are not always repeated. Where two headings read alike, the source gives them in different places.

Usually Km stands for the concentration of substrate that gives half-maximal velocity. As for (Human respiratory syncytial virus A2), the Michaelis-Menten constant (Km) in data set [1] was 19.7 ± 6.7 µM; in data set [2], 0.62 ± 0.042 µM.
On to 2'F-4'ClCH2-ATP, for which, in [3], the Chain termination effect entry is “immediate chain terminator”; the “Discrimination (Km NTP analog / Km NTP)” value is 12 fold and 12±2.5 fold; the Km worked out at 27 ± 7.8 µM. In data set [4], the “Discrimination (Km NTP analog / Km NTP)” value worked out at 12.9±1.1 fold, the Km came to 23.6 ± 5.8 µM and the “Resistance (QUADdiscrimination / WTdiscrimination)” value came out at 1.1 fold.
For GTP [reference compound], the Km in data set [3] (setting [13]) came out at 1.1 ± 0.4 µM; in data set [4], 0.3 ± 0.1 µM.
On to `[N-]=[N+]=N[C@]1(COP(=O)(O)OP(=O)(O)OP(=O)(O)O)O[C@@H](n2ccc(N)nc2=O)[C@H](F)[C@@H]1O` [2'F-4'N3-CTP], for which the “Resistance (QUADdiscrimination / WTdiscrimination)” value in data set [4] (listed as azido (N3-)) is recorded as “no resistance”.
Turning to `C[C@@H](F)[C@]1(COP(=O)(O)OP(=O)(O)OP(=O)(O)O)O[C@@H](n2ccc(N)nc2=O)[C@H](F)[C@@H]1O` [1-fluoroethyl (FCH3CH2)], the “Resistance (QUADdiscrimination / WTdiscrimination)” value in data set [4] is recorded as greater than 3 fold.
A word on the EC50: it is the concentration that produces a half-maximal response. Higher therefore signals a less potent agent. For the molecule `Nc1ccn([C@@H]2O[C@@](CO)(CBr)[C@@H](O)[C@H]2F)c(=O)n1` [2'F-4'BrCH2-cytidine], the EC50 in [5] stood at 1600 ± 600 nM. Further, in [6] (QUAD vs WT minigenome), the “Loss in inhibition potency in the presence of the QUAD mutations” value came out at 47 fold.
As for `[N-]=[N+]=N[C@]1(CO)O[C@@H](n2ccc(N)nc2=O)[C@H](F)[C@@H]1O` [2'F-4'N3-cytidine], the EC50 in data set [5] turned out to be 1300 ± 300 nM; in data set [6] (human respiratory syncytial virus, QUAD L, HEp-2 cells, minigenome luciferase), 2200 ± 500 nM.
Consider CTP [reference compound], for which the Michaelis constant (Km) was 0.042 ± 0.009 µM in [7]; 0.056 ± 0.01 µM in data set [8] (WT RSV L-P, n = 4, read-out: Km CTP); 0.028 ± 0.005 µM in data set [9] (QUAD RSV L-P, n = 2, read-out: Km CTP).
Regarding 2'F-4'ClCH2-GTP, in data set [3], the Chain termination effect result was “did not completely block RNA synthesis”, the “Discrimination (Km NTP analog / Km NTP)” value was 5.6±0.6 fold and the Km stood at 5.8 ± 1.4 µM. Moreover, in data set [4], the “Discrimination (Km NTP analog / Km NTP)” value is 94.4 fold and 94.4±17.7 fold; the Km was 31.1 ± 15 µM; the “Resistance (QUADdiscrimination / WTdiscrimination)” value was found to be 17 fold.
For `Nc1ccn([C@@H]2O[C@@](COP(=O)(O)OP(=O)(O)OP(=O)(O)O)(C3CC3)[C@@H](O)[C@H]2F)c(=O)n1` [cyclopropyl (CH2CH2CH2)], in data set [4], the “Resistance (QUADdiscrimination / WTdiscrimination)” value is “no resistance”.
For `CSC[C@]1(COP(=O)(O)OP(=O)(O)OP(=O)(O)O)O[C@@H](n2ccc(N)nc2=O)[C@H](F)[C@@H]1O` [methyl-thio-methyl (CH3SCH2)], the “Resistance (QUADdiscrimination / WTdiscrimination)” value in [4] was “no resistance”.
Consider ATP [reference compound], for which the values for the Michaelis-Menten constant (Km) in data set [3] (setting [13]) and in data set [4] were 2.2 ± 0.2 µM and 1.8 ± 0.3 µM, respectively.
For the molecule `Nc1ccn([C@@H]2O[C@](CCl)(COP(=O)(O)OP(=O)(O)OP(=O)(O)O)[C@@H](O)[C@H]2F)c(=O)n1` [ALS-8112-TP, 2'F-4'ClCH2-cytidine triphosphate], the “Resistance (QUADdiscrimination / WTdiscrimination)” value in [4] (listed as chloromethyl (ClCH2)) was greater than 3 fold. For the same molecule, in data set [7], the “Discrimination of the CTP analog” value was found to be 18 fold. In addition, in data set [8] (WT RSV polymerase), the Discrimination is recorded as 13 fold. For the same molecule, in data set [9] (QUAD vs WT RSV L-P), the “Resistance (increase in discrimination by QUAD)” value was 4.6 fold.
As for `Nc1ccn([C@@H]2O[C@](CF)(COP(=O)(O)OP(=O)(O)OP(=O)(O)O)[C@@H](O)[C@H]2F)c(=O)n1` [fluoromethyl (FCH2)], the “Resistance (QUADdiscrimination / WTdiscrimination)” value in [4] is greater than 3 fold.
As to `O=C(NC1CC1)c1cc2c(s1)-c1ccccc1N(C(=O)c1ccc(NC(=O)c3cccnc3N3CCC4(CC3)COC4)cc1)CC2` [AZ-27], the “Resistance compared to the WT enzyme” value in data set [10] is 940 fold. Also, the “Inhibition of +1 and +2 RNA products” value in data set [11] (30-minute reaction) was “no inhibition”. The “Inhibition of +4–7 RNA products” value in data set [11] (30-minute reaction, position +4 and beyond) is 75–85%. Besides, the “Inhibition behavior with respect to NTPs” value in data set [11] (ATP+CTP from 1 to 100 μM) is recorded as “non-competitive inhibition behavior”. For the same molecule, in [12], the “Effect on L binding to P (L-P complex stability)” value is given as “did not inhibit the ability of L to bind to P”.
On to `Nc1ccn([C@@H]2O[C@](CBr)(COP(=O)(O)OP(=O)(O)OP(=O)(O)O)[C@@H](O)[C@H]2F)c(=O)n1` [bromomethyl (BrCH2)], for which, in data set [4], the “Resistance (QUADdiscrimination / WTdiscrimination)” value is greater than 3 fold.
